This is an account of results in PubChem BioAssay (NCI).

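Method: 48-hour compound exposure of cells in 96-well plates, five concentrations, linear interpolation of endpoints. At the TGI there is no net growth.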 Bounds are passed on as bounds.

Among the test systems are EKVX NSCLC; SNB-75 CNS; HL-60(TB) leukemia; LOX IMVI melanoma; RPMI-8226 leukemia; HOP-62 NSCLC; SF-268 CNS; TK-10 renal; COLO 205 colon; 786-0 renal; SK-OV-3 ovarian; NCI-H226 lung; MCF7 breast; CCRF-CEM leukemia; SF-539 CNS; ACHN renal; MDA-N; PC-3 prostate; SK-MEL-2 melanoma; SK-MEL-28 melanoma.
What all share (test): NCI-60 cell line screen, 48 h

In the case of `S=C1NNC2(C(=S)N1)c1ccccc1-c1ccccc12`, the TGI with EKVX NSCLC, with SNB-75 CNS, in the experiment with HL-60(TB) leukemia, in the experiment with LOX IMVI melanoma, in the experiment with RPMI-8226 leukemia and in the experiment with HOP-62 NSCLC was above 10 µM in each case. For the same molecule, the TGI with SF-268 CNS, in the experiment on TK-10 renal, in the experiment with COLO 205 colon, with 786-0 renal, in the experiment with SK-OV-3 ovarian and in the experiment on NCI-H226 lung was above 10 µM in each case. Besides, the TGI in the experiment on MCF7 breast, with CCRF-CEM leukemia and in the experiment with SF-539 CNS was above 10 µM each time.
Turning to `CC(C)CC1N=C(OCc2ccccc2)OC1=O` (stereo not given), the TGI in the experiment on EKVX NSCLC, in the experiment with SNB-75 CNS, with LOX IMVI melanoma, in the experiment with RPMI-8226 leukemia, in the experiment with HOP-62 NSCLC and in the experiment with SF-268 CNS was above 100 µM throughout. Further, the TGI in the experiment with TK-10 renal, in the experiment with ACHN renal, in the experiment with MDA-N, in the experiment with 786-0 renal, in the experiment on SK-OV-3 ovarian and in the experiment on PC-3 prostate was above 100 µM in each case. Moreover, the TGI in the experiment with NCI-H226 lung, in the experiment on MCF7 breast, with CCRF-CEM leukemia, with SF-539 CNS, in the experiment with SK-MEL-2 melanoma and in the experiment with SK-MEL-28 melanoma was above 100 µM each time.
Consider `C=C(C)CCC(O)[C@](C)(O)[C@H]1[C@H](O)C[C@@]2(C)[C@@H]3CCc4c(cc(OC5OC(CO)C(O)C(O)C5O)c(O)c4C)C3(C)C(=O)C[C@]12C` (stereo not given in full), for which the TGI in the experiment on EKVX NSCLC, in the experiment with SNB-75 CNS, in the experiment with LOX IMVI melanoma, in the experiment on HOP-62 NSCLC, in the experiment with SF-268 CNS and in the experiment with TK-10 renal was above 100 µM in each case. Moreover, the TGI in the experiment on COLO 205 colon, in the experiment on ACHN renal, with MDA-N, with 786-0 renal, in the experiment on SK-OV-3 ovarian and in the experiment with PC-3 prostate was above 100 µM each time. For the same molecule, the TGI in the experiment with NCI-H226 lung, in the experiment on MCF7 breast, in the experiment with CCRF-CEM leukemia, in the experiment on SF-539 CNS, with SK-MEL-2 melanoma and in the experiment on SK-MEL-28 melanoma was above 100 µM throughout.
Turning to `Cn1c(=O)cc(Nc2ccc(N)cc2)[nH]c1=O`, the TGI with EKVX NSCLC, with SNB-75 CNS, in the experiment with LOX IMVI melanoma, with RPMI-8226 leukemia, in the experiment with HOP-62 NSCLC and with SF-268 CNS was above 100 µM in each case. Further, the TGI in the experiment with TK-10 renal, in the experiment with COLO 205 colon, in the experiment with ACHN renal, with MDA-N, with 786-0 renal and in the experiment on SK-OV-3 ovarian was above 100 µM each time. The TGI in the experiment on PC-3 prostate, in the experiment with NCI-H226 lung, with MCF7 breast, with CCRF-CEM leukemia, in the experiment on SF-539 CNS and in the experiment with SK-MEL-2 melanoma was above 100 µM in each case. In addition, the TGI in the experiment with SK-MEL-28 melanoma is above 100 µM.
On to `Cc1ccc(-c2cc(=O)c(=O)[nH][nH]2)cc1`, for which the TGI with EKVX NSCLC, in the experiment with SNB-75 CNS, in the experiment on LOX IMVI melanoma, in the experiment with HOP-62 NSCLC, in the experiment with SF-268 CNS and with TK-10 renal was above 100 µM each time. For the same molecule, the TGI in the experiment with COLO 205 colon, in the experiment with ACHN renal, in the experiment on MDA-N, in the experiment on 786-0 renal, in the experiment on SK-OV-3 ovarian and with PC-3 prostate was above 100 µM in each case. Also, the TGI in the experiment with NCI-H226 lung, in the experiment on MCF7 breast, in the experiment on CCRF-CEM leukemia, in the experiment on SF-539 CNS, with SK-MEL-2 melanoma and in the experiment with SK-MEL-28 melanoma was above 100 µM throughout.
Take `CC(=O)OCC1OC(O[C@H]2C=C[C@@H](C(=O)OCc3ccccc3)n3c(=O)n(-c4ccccc4)c(=O)n32)C(OC(C)=O)C(OC(C)=O)C1OC(C)=O` (stereo not given in full): the TGI with EKVX NSCLC was 3.9 µM; in the experiment on SNB-75 CNS, 23.5 µM; in the experiment with HL-60(TB) leukemia it was above 100 µM; with RPMI-8226 leukemia it was 3.31 µM; in the experiment on SF-268 CNS, 4.23 µM; in the experiment with TK-10 renal, 3.92 µM. In addition, the TGI was determined as 8.75 µM in the experiment with COLO 205 colon; 3.09 µM in the experiment with ACHN renal; 7.1 µM in the experiment on MDA-N; 4.51 µM in the experiment on 786-0 renal; 33.6 µM with SK-OV-3 ovarian; 13 µM in the experiment on PC-3 prostate. Also, the TGI with NCI-H226 lung was 12.5 µM; with CCRF-CEM leukemia, above 19.9 µM; in the experiment on SF-539 CNS, 3.21 µM; in the experiment on SK-MEL-2 melanoma, 10.1 µM; in the experiment with SK-MEL-28 melanoma, 5.28 µM.
On to `N=c1oc2cc(O)ccc2cc1C(=O)Nc1cccc2ccccc12`, for which the TGI is 14.6 µM in the experiment with EKVX NSCLC; 13.9 µM with SNB-75 CNS; 10.7 µM in the experiment with HL-60(TB) leukemia; 18.4 µM with LOX IMVI melanoma; above 100 µM in the experiment on RPMI-8226 leukemia; above 44 µM with HOP-62 NSCLC. The TGI in the experiment on SF-268 CNS is 57.2 µM; in the experiment with TK-10 renal, 7.68 µM; in the experiment with COLO 205 colon, 34.6 µM; in the experiment on ACHN renal, 15.9 µM; with 786-0 renal, 17.3 µM; in the experiment with SK-OV-3 ovarian, 27.6 µM. Moreover, the TGI was 10.2 µM with PC-3 prostate; 16.6 µM with NCI-H226 lung; 17.8 µM in the experiment with MCF7 breast; above 20.4 µM with CCRF-CEM leukemia; 34.4 µM in the experiment on SK-MEL-28 melanoma.
In the case of `[O-][N+]1=C2CCC/C(=N/O)C2(O)C2CCCCC21N1CCOCC1` (stereo not given), the TGI in the experiment on EKVX NSCLC, with SNB-75 CNS, with LOX IMVI melanoma, in the experiment on HOP-62 NSCLC, with SF-268 CNS and in the experiment on TK-10 renal was above 100 µM each time. The TGI with COLO 205 colon, in the experiment with ACHN renal, in the experiment with MDA-N, in the experiment with 786-0 renal, in the experiment with SK-OV-3 ovarian and in the experiment on PC-3 prostate was above 100 µM each time. The TGI with NCI-H226 lung, in the experiment on MCF7 breast, in the experiment on CCRF-CEM leukemia, in the experiment on SF-539 CNS, in the experiment with SK-MEL-2 melanoma and in the experiment on SK-MEL-28 melanoma was above 100 µM each time.
